Target: recombinant human Myt1 (full length PKMYT1) (Homo sapiens (Human), UniProt Q99640)
Assay: Recombinant human Myt1 kinase assay (ADP-Glo)
Assay type: biochemical
Conditions: 10 μM ATP
Protocol: Detection of Myt1 kinase activity utilized a recombinant human Myt1 kinase assay measuring the hydrolysis of ATP using a commercially available ADP-Glo Assay (ADP-Glo™ Kinase Assay from Promega, 10 000 assays, #V9102). Briefly, 5 μL recombinant human Myt1 (full length PKMYT1 recombinant human protein expressed in insect cells from Thermo Fisher #A33387; ˜80% purity) was prepared in reaction buffer (70 mM HEPES, 3 mM MgCl2, 3 mM MnCl2, 50 μg/ml PEG 20000, 3 μM Na-orthovanadate, 1.2 mM DTT) and added to 384 well white polystyrene, flat bottom well, non-treated, microplate (Corning #3572). After this, 5 μL of compounds (diluted in reaction buffer to 0.5% DMSO) was added to the microplate and the plate was spun briefly and incubated at 22° C. for 15 minutes. Ultra-Pure Adenosine Triphosphate (ATP) solution (ADP-Glo kit from Promega) was diluted in reaction buffer and 5 μL was added to the microplate, spun down briefly and incubated for 60 minutes at 30° C. The final Myt1 enzyme concentration was 18 nM and the final ATP concentration was 10 μM. After the 60-minute incubation, 15 μL of ADP-Glo reagent was added and the plate was spun briefly and sealed and incubated in the dark for 40 minutes at 22° C. Following this, 30 μL of kinase detection reagent was added per well and the plate was spun briefly, sealed and incubated for 45-60 minutes at 22° C. in the dark. Luminescence was read using the Envision (250 ms integration). The IC50 and the % max inhibition were calculated for each inhibitor compound tested.

Chain of recombinant human Myt1 (full length PKMYT1) (Q99640 whole entry): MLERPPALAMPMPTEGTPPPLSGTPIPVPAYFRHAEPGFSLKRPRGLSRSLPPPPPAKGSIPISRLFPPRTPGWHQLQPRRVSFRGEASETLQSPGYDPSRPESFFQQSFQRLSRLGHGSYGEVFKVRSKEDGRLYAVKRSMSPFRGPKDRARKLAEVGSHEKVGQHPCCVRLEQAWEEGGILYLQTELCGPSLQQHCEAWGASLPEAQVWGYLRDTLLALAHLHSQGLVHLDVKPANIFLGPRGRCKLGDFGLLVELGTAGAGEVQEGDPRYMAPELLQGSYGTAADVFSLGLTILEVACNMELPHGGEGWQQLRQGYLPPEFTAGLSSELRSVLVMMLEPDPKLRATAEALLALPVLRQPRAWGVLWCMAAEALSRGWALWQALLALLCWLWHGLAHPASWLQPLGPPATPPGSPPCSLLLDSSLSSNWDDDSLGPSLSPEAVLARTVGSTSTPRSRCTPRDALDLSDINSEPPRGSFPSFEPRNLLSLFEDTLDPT

SMILES	IC50
Cc1ccc(O)cc1-c1nc(-c2cccnc2)nc(C(N)=O)c1N [Compound 21]	202 nM
Cc1ccc2[nH]ncc2c1-c1nc(-c2ccc(OC3CC3)cc2)nc(C(N)=O)c1N [Compound 127]	120 nM
Cc1ccc2[nH]ncc2c1-c1cc(-c2cn(C)cn2)nc(C(N)=O)c1N [Compound 172]	53 nM
Cc1ccc2[nH]ncc2c1-c1cc(-c2csc(C3(O)COC3)n2)nc(C(N)=O)c1N [Compound 223]	61 nM
Cc1ccc(O)cc1-c1nc(-c2ccc(F)c(Cl)c2)nc(C(N)=O)c1N [Compound 28]	45 nM
Cc1ccc2[nH]ncc2c1-c1cc(-c2ccnc(OCCOc3ccccc3)n2)nc(C(N)=O)c1N [Compound 195]	182 nM
Cc1ccc2[nH]ncc2c1-c1nc(-c2cccnc2)nc(C(N)=O)c1N [Compound 99]	59 nM
Cc1ccc(O)cc1-c1nc(-c2cc(F)cc(F)c2)nc(C(N)=O)c1N [Compound 22]	18 nM
Cc1ccc2[nH]ncc2c1-c1nc(-c2ccnc(N3CCN(C)CC3)c2)nc(C(N)=O)c1N [Compound 154]	30 nM
Cc1cc(-c2nc(C(N)=O)c(N)c(-c3cc(O)ccc3C)n2)cc(C)n1 [Compound 11]	54 nM
Cc1ccc2[nH]ncc2c1-c1nc(-c2ccc(OC3CCOCC3)c(C#N)c2)nc(C(N)=O)c1N [Compound 118]	309 nM
Cc1ccc2[nH]ncc2c1-c1nc(-c2ccc(Oc3ccccc3)cc2)nc(C(N)=O)c1N [Compound 113]	1110 nM
Cc1ccc2[nH]ncc2c1-c1nc(-c2ccnc(C(F)(F)F)c2)nc(C(N)=O)c1N [Compound 153]	27 nM
Cc1ccc2[nH]ncc2c1-c1nc(-c2cccc(C(=O)O)c2)nc(C(N)=O)c1N [Compound 150]	1110 nM
Cc1ccc2[nH]ncc2c1-c1cc(-c2cccc(N3CCSCC3)n2)nc(C(N)=O)c1N [Compound 187]	78 nM
Cc1ccc(O)cc1-c1nc(-c2ccn(C)c(=O)c2)nc(C(N)=O)c1N [Compound 36]	92 nM

SMILES	IC50
Cc1ccc2[nH]ncc2c1-c1nc(-c2ccc(C(F)(F)F)cc2)nc(C(N)=O)c1N [Compound 104]	317 nM
Cc1cnc(-c2nc(C(N)=O)c(N)c(-c3cc(O)ccc3C)n2)s1 [Compound 9]	44 nM
Cc1ccc2[nH]ncc2c1-c1nc(-c2cccc(N(C)C)c2)nc(C(N)=O)c1N [Compound 139]	57 nM
NC(=O)c1nc(-c2ccnnc2)cc(-c2c(Cl)ccc3[nH]ncc23)c1N [Compound 106]	28 nM
Cc1ccc2[nH]ncc2c1-c1nc(-c2ccccn2)nc(C(N)=O)c1N [Compound 117]	90 nM
COc1ccccc1COc1cccc(-c2cc(-c3c(C)ccc4[nH]ncc34)c(N)c(C(N)=O)n2)n1 [Compound 181]	103 nM
Cc1ccc2[nH]ncc2c1-c1cc(-c2csc(C(C)(C)O)n2)nc(C(N)=O)c1N [Compound 225]	161 nM
Cc1ccc(O)cc1-c1nc(-c2cccc(C(N)=O)c2)nc(C(N)=O)c1N [Compound 8]	25 nM
Cc1csc(-c2nc(C(N)=O)c(N)c(-c3c(C)ccc4[nH]ncc34)n2)c1 [Compound 148]	69 nM
Cc1ccc2[nH]ncc2c1-c1nc(-c2ccc(C3(C#N)CC3)cc2)nc(C(N)=O)c1N [Compound 125]	51 nM
Cc1ccc2[nH]ncc2c1-c1cc(-c2ccccn2)nc(C(N)=O)c1N [Compound 96]	387 nM
COc1cccc(-c2nc(C(N)=O)c(N)c(-c3c(C)ccc4[nH]ncc34)n2)c1 [Compound 141]	23 nM
Cc1ccc2[nH]ncc2c1-c1nc(-c2ccc3cn[nH]c3c2)nc(C(N)=O)c1N [Compound 129]	23 nM
Cc1cc(-c2nc(C(N)=O)c(N)c(-c3c(C)ccc4[nH]ncc34)n2)cc(C(F)(F)F)c1 [Compound 144]	130 nM
Cc1ccc2[nH]ncc2c1-c1nc(-c2ccc3cnn(C)c3c2)nc(C(N)=O)c1N [Compound 119]	25 nM
Cc1ccc2[nH]ncc2c1-c1nc(-c2ccc(CN3CCOCC3)cc2)nc(C(N)=O)c1N [Compound 147]	217 nM

The next lines start with the values.

IC50	SMILES
28 nM	Cc1ccc2[nH]ncc2c1-c1nc(-c2cccc3cc[nH]c23)nc(C(N)=O)c1N [Compound 366]
> 2000 nM	Cc1ccc2[nH]ncc2c1-c1cc(-c2ccnc(N[C@H]3c4ccccc4C[C@@H]3O)n2)nc(C(N)=O)c1N (atropisomer, axis not shown) [Compound 372]
25 nM	Cc1ccc2[nH]ncc2c1-c1nc(-c2cccc(CN(C)C)c2)nc(C(N)=O)c1N [Compound 291]
2 nM	Cc1ccc2[nH]ncc2c1-c1cc(-c2ccnc(N[C@@H](CO)Cc3ccccc3)n2)nc(C(N)=O)c1N (atropisomer, axis not shown) [Compound 383]
16 nM	CCOC(=O)COc1cccc(-c2nc(C(N)=O)c(N)c(-c3c(C)ccc4[nH]ncc34)n2)c1 [Compound 293]
18 nM	Cc1ccc2[nH]ncc2c1-c1nc(-c2cccc(C(=O)N3CCOCC3)c2)nc(C(N)=O)c1N [Compound 289]
20 nM	Cc1ccc2[nH]ncc2c1-c1cc(-c2ccnc(NCCCO)n2)nc(C(N)=O)c1N [Compound 343]
640 nM	Cc1ccc2[nH]ncc2c1-c1cc(-c2cccc(OC[C@H]3CCCN3)n2)nc(C(N)=O)c1N (atropisomer, axis not shown) [Compound 387]
2 nM	Cc1ccc2[nH]ncc2c1-c1cc(-c2ccnc(N[C@@H](CO)c3ccccc3)n2)nc(C(N)=O)c1N (atropisomer, axis not shown) [Compound 362]
869 nM	Cc1ccc2[nH]ncc2c1-c1cc(-c2ccnc(N[C@H](CO)Cc3ccccc3)n2)nc(C(N)=O)c1N (atropisomer, axis not shown) [Compound 370]
16 nM	Cc1ccc2[nH]ncc2c1-c1cc(-c2ccnc(NCC3(O)CC3)n2)nc(C(N)=O)c1N [Compound 341]
213 nM	Cc1ccc2[nH]ncc2c1-c1nc(-c2cccc(CNc3ncc(C(F)(F)F)cn3)c2)nc(C(N)=O)c1N [Compound 296]
1160 nM	COc1ccc(COc2cccc(-c3cc(-c4c(C)ccc5[nH]ncc45)c(N)c(C(N)=O)n3)n2)cc1 [Compound 339]
18 nM	COCc1cccc(-c2nc(C(N)=O)c(N)c(-c3c(C)ccc4[nH]ncc34)n2)c1 [Compound 292]
55 nM	Cc1ccc2[nH]ncc2c1-c1cc(-c2cccc(O[C@@H](C)c3ncccn3)n2)nc(C(N)=O)c1N [Compound 253]
4 nM	Cc1ccc2[nH]ncc2c1-c1cc(-c2ccnc(N3CCC(O)CC3)n2)nc(C(N)=O)c1N [Compound 359]
20 nM	Cc1ccc2[nH]ncc2c1-c1cc(-c2ccnc(N3CCCC3CO)n2)nc(C(N)=O)c1N (centres unmarked) [Compound 373]

IC50	SMILES
14 nM	CSC(C)COc1cccc(-c2cc(-c3c(C)ccc4[nH]ncc34)c(N)c(C(N)=O)n2)n1 (centres unmarked) [Compound 375]
> 2000 nM	Cc1ccc2[nH]ncc2c1-c1nc(-c2cc(F)c(F)cc2NC2CN(C(=O)OC(C)(C)C)C2)nc(C(N)=O)c1N [Compound 479]
162 nM	Cc1ccc2n[nH]cc2c1-c1cc(-c2cccc(OC[C@@H](N)c3ccccc3)n2)nc(C(N)=O)c1N [Compound 277]
18 nM	Cc1ccc2[nH]ncc2c1-c1nc(-c2cccc3nc[nH]c23)nc(C(N)=O)c1N [Compound 378]
35 nM	CCC(C)COc1cccc(-c2cc(-c3c(C)ccc4[nH]ncc34)c(N)c(C(N)=O)n2)n1 (centres unmarked) [Compound 361]
48 nM	Cc1ccc2[nH]ncc2c1-c1cc(-c2cc[nH]c(=O)c2)nc(C(N)=O)c1N [Compound 237]
81 nM	Cc1ccc2[nH]ncc2c1-c1nc(-c2cccc(CO)c2)nc(C(N)=O)c1N [Compound 305]
48 nM	Cc1ccc2[nH]ncc2c1-c1nc(-c2ccccc2N)nc(C(N)=O)c1N [Compound 319]
54 nM	CCC(Nc1cccc(-c2cc(-c3c(C)ccc4[nH]ncc34)c(N)c(C(N)=O)n2)n1)c1ccccc1 (centres unmarked) [Compound 331, 5-amino-4-(5-methyl-1H-indazol-4-yl)-6′-((1-phenylpropyl)amino)-[2,2′-bipyridine]-6-carboxamide]
> 2000 nM	NC(=O)c1nc(-c2cccnc2)cc(-c2c(C(F)(F)F)ccc3[nH]ncc23)c1N [Compound 325]
21 nM	Cc1nnc(COc2cccc(-c3cc(-c4c(C)ccc5[nH]ncc45)c(N)c(C(N)=O)n3)n2)o1 [Compound 318]
73 nM	Cc1ccc2n[nH]cc2c1-c1cc(-c2cccc(=O)[nH]2)nc(C(N)=O)c1N [Compound 243]
24 nM	Cc1ccc2[nH]ncc2c1-c1cc(-c2ccnc(N3CCCCC3CCO)n2)nc(C(N)=O)c1N (centres unmarked) [Compound 404]
4 nM	Cc1ccc2[nH]ncc2c1-c1cc(-c2ccnc(N[C@H]3CC[C@H](O)CC3)n2)nc(C(N)=O)c1N [Compound 369]
195 nM	Cc1ccc2[nH]ncc2c1-c1cc(Nc2ccccc2)nc(C(N)=O)c1N [Compound 335, 3-amino-4-(5-methyl-1H-indazol-4-yl)-6-(phenylamino)picolinamide]
859 nM	Cc1ccc2[nH]ncc2c1-c1cc(-c2ccnc(OCCN3CCCC3)n2)nc(C(N)=O)c1N (atropisomer, axis not shown) [Compound 233]
